Laboratory results published in ChEMBL document CHEMBL1201861, “Genomics of Drug Sensitity in Cancer screening data, Wellcome Trust Sanger Institute”.

Legend:
COR-L23 = test: cells; type: functional, cell-based; details: Homo sapiens;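 note: cell viability assay measuring how strongly compounds suppress growth of COR-L23 cells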
Description: SANGER: Inhibition of human COR-L23 cell growth in a cell viability assay.

CP50-MEL-B = test: cells; type: functional, cell-based; details: Homo sapiens;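 note: growth inhibition of the human cell line, measured with a cell viability read-out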
Description: SANGER: Inhibition of human CP50-MEL-B cell growth in a cell viability assay.

Ca-Ski = test: cells; type: functional, cell-based; details: Homo sapiens;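 note: cell viability assay measuring inhibition of Ca-Ski cell growth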
Description: SANGER: Inhibition of human Ca-Ski cell growth in a cell viability assay.

CaR-1 = test: cells; type: functional, cell-based; details: Homo sapiens;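 note: growth inhibition of human CaR-1 cancer cells, read out with a cell viability assay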
Description: SANGER: Inhibition of human CaR-1 cell growth in a cell viability assay.

D-247MG = test: cells; type: functional, cell-based; details: Homo sapiens
Description: SANGER: Inhibition of human D-247MG cell growth in a cell viability assay.

DOK = test: cells; type: functional, cell-based; details: Homo sapiens;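 note: cell viability assay read-out, values reflect inhibition of cell growth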
Description: SANGER: Inhibition of human DOK cell growth in a cell viability assay.

EB-3 = test: cells; type: functional, cell-based; details: Homo sapiens;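 note: human EB-3 cells, growth inhibition read out via a cell viability assay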
Description: SANGER: Inhibition of human EB-3 cell growth in a cell viability assay.

EB2 = test: cells; type: functional, cell-based; details: Homo sapiens;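 note: growth inhibition of EB2 cells, read out with a cell viability assay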
Description: SANGER: Inhibition of human EB2 cell growth in a cell viability assay.

FaDu = test: cells; type: functional, cell-based; details: Homo sapiens;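 note: cell viability readout of growth inhibition in FaDu cells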
Description: SANGER: Inhibition of human FADU cell growth in a cell viability assay.

GCT = test: cells; type: functional, cell-based; details: Homo sapiens;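 note: GCT cell line proliferation inhibition, read out with a cell viability assay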
Description: SANGER: Inhibition of human GCT cell growth in a cell viability assay.

IST-SL2 = test: cells; type: functional, cell-based; details: Homo sapiens;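 note: growth inhibition of human IST-SL2 cells, read out by a cell viability assay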
Description: SANGER: Inhibition of human IST-SL2 cell growth in a cell viability assay.

K052 = test: cells; type: functional, cell-based; details: Homo sapiens;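 note: Read-out from a cell viability assay, IC50 reflecting suppression of K052 cell growth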
Description: SANGER: Inhibition of human K052 cell growth in a cell viability assay.

Kasumi 1 = test: cells; type: functional, cell-based; details: Homo sapiens;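 note: growth inhibition of human Kasumi-1 cells, read out by a cell viability assay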
Description: SANGER: Inhibition of human KASUMI-1 cell growth in a cell viability assay.

KYSE-520 cell line = test: cells; type: functional, cell-based; details: Homo sapiens;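 note: growth inhibition of human KYSE-520 cells, read out with a viability assay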
Description: SANGER: Inhibition of human KYSE-520 cell growth in a cell viability assay.

KYSE-70 cell line = test: cells; type: functional, cell-based; details: Homo sapiens;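 note: cell viability assay read-out, with IC50 expressing suppression of KYSE-70 cell growth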
Description: SANGER: Inhibition of human KYSE-70 cell growth in a cell viability assay.

LC4-1 = test: cells; type: functional, cell-based; details: Homo sapiens;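 note: growth inhibition of LC4-1 cells, read out with a cell viability assay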
Description: SANGER: Inhibition of human LC4-1 cell growth in a cell viability assay.

LK-2 = test: cells; type: functional, cell-based; details: Homo sapiens;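 note: growth inhibition of LK-2 cells, read out with a viability assay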
Description: SANGER: Inhibition of human LK-2 cell growth in a cell viability assay.

MCF7 = test: cells; type: functional, cell-based; details: Homo sapiens;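 note: growth inhibition of human MCF7 cells, read out with a cell viability assay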
Description: SANGER: Inhibition of human MCF7 cell growth in a cell viability assay.

MDA-MB-157 = test: cells; type: functional, cell-based; details: Homo sapiens
Description: SANGER: Inhibition of human MDA-MB-157 cell growth in a cell viability assay.

MDA-MB-175-VII = test: cells; type: functional, cell-based; details: Homo sapiens
MDA-MB-361 = test: cells; type: functional, cell-based; details: Homo sapiens
MEL-JUSO = test: cells; type: functional, cell-based; details: Homo sapiens;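 note: growth inhibition of human MEL-JUSO cells, read out with a cell viability assay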
Description: SANGER: Inhibition of human MEL-JUSO cell growth in a cell viability assay.

MIA PaCa-2 = test: cells; type: functional, cell-based; details: Homo sapiens;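 note: growth inhibition of MIA PaCa-2 cells, read out with a cell viability assay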
Description: SANGER: Inhibition of human MIA-PaCa-2 cell growth in a cell viability assay.

NCI-H1793 = test: cells; type: functional, cell-based; details: Homo sapiens;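 note: cell growth inhibition, read out by a cell viability assay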
Description: SANGER: Inhibition of human NCI-H1793 cell growth in a cell viability assay.

NCI-H1882 = test: cells; type: functional, cell-based; details: Homo sapiens;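 note: growth inhibition of the cell line, determined with a viability assay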
Description: SANGER: Inhibition of human NCI-H1882 cell growth in a cell viability assay.

NCI-H2030 = test: cells; type: functional, cell-based; details: Homo sapiens;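 note: growth inhibition of human NCI-H2030 cells, read out by a cell viability assay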
Description: SANGER: Inhibition of human NCI-H2030 cell growth in a cell viability assay.

NCI-H2052 = test: cells; type: functional, cell-based; details: Homo sapiens;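 note: growth inhibition of NCI-H2052 cells, read out with a cell viability assay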
Description: SANGER: Inhibition of human NCI-H2052 cell growth in a cell viability assay.

NCI-H2122 = test: cells; type: functional, cell-based; details: Homo sapiens;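 note: growth inhibition of the cells, read out with a cell viability assay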
Description: SANGER: Inhibition of human NCI-H2122 cell growth in a cell viability assay.

NCI-H748 = test: cells; type: functional, cell-based; details: Homo sapiens;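 note: growth inhibition of NCI-H748 cells, measured by a cell viability assay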
Description: SANGER: Inhibition of human NCI-H748 cell growth in a cell viability assay.

NCI-N87 = test: cells; type: functional, cell-based; details: Homo sapiens;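 note: growth inhibition of human NCI-N87 cells, read out with a cell viability assay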
Description: SANGER: Inhibition of human NCI-N87 cell growth in a cell viability assay.

NUGC-3 = test: cells; type: functional, cell-based; details: Homo sapiens;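 note: growth inhibition of human NUGC-3 cells, read out with a cell viability assay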
Description: SANGER: Inhibition of human NUGC-3 cell growth in a cell viability assay.

OAW-42 = test: cells; type: functional, cell-based; details: Homo sapiens;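 note: growth inhibition of OAW-42 cells, read out with a cell viability assay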
Description: SANGER: Inhibition of human OAW-42 cell growth in a cell viability assay.

OVCAR-5 = test: cells; type: functional, cell-based; details: Homo sapiens;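 note: growth inhibition of human OVCAR-5 cells, read out with a cell viability assay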
Description: SANGER: Inhibition of human OVCAR-5 cell growth in a cell viability assay.

PA-1 = test: cells; type: functional, cell-based; details: Homo sapiens;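 note: IC50 for suppression of PA-1 cell proliferation, determined with a cell viability read-out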
Description: SANGER: Inhibition of human PA-1 cell growth in a cell viability assay.

PANC-03-27 = test: cells; type: functional, cell-based; details: Homo sapiens
Description: SANGER: Inhibition of human PANC-03-27 cell growth in a cell viability assay.

RD = test: cells; type: functional, cell-based; details: Homo sapiens
Description: SANGER: Inhibition of human RD cell growth in a cell viability assay.

RERF-LC-MS = test: cells; type: functional, cell-based; details: Homo sapiens;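 note: growth inhibition of human RERF-LC-MS cells, read out by a cell viability assay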
Description: SANGER: Inhibition of human RERF-LC-MS cell growth in a cell viability assay.

RPMI-2650 = test: cells; type: functional, cell-based; details: Homo sapiens
Description: SANGER: Inhibition of human RPMI-2650 cell growth in a cell viability assay.

RPMI-6666 = test: cells; type: functional, cell-based; details: Homo sapiens
Description: SANGER: Inhibition of human RPMI-6666 cell growth in a cell viability assay.

SF-295 = test: cells; type: functional, cell-based; details: Homo sapiens;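 note: growth inhibition of SF-295 cells, read out with a cell viability assay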
Description: SANGER: Inhibition of human SF295 cell growth in a cell viability assay.

SK-MEL-24 = test: cells; type: functional, cell-based; details: Homo sapiens;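 note: growth inhibition read out by a cell viability assay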
Description: SANGER: Inhibition of human SK-MEL-24 cell growth in a cell viability assay.

SK-MEL-28 = test: cells; type: functional, cell-based; details: Homo sapiens;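 note: growth inhibition of human SK-MEL-28 cells, read out with a cell viability assay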
Description: SANGER: Inhibition of human SK-MEL-28 cell growth in a cell viability assay.

SKG-IIIa = test: cells; type: functional, cell-based; details: Homo sapiens;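 note: cell growth inhibition, read out with a cell viability assay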
Description: SANGER: Inhibition of human SKG-IIIa cell growth in a cell viability assay.

ST486 = test: SANGER: Inhibition of human ST486 cell growth in a cell viability assay.; type: functional, cell-based
SW1710 = test: cells; type: functional, cell-based; details: Homo sapiens;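 note: growth inhibition of SW1710 cells, determined with a cell viability assay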
Description: SANGER: Inhibition of human SW1710 cell growth in a cell viability assay.

SW-620 = test: cells; type: functional, cell-based; details: Homo sapiens;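 note: growth inhibition of human SW-620 cells, measured by a cell viability assay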
Description: SANGER: Inhibition of human SW620 cell growth in a cell viability assay.

SW626 = test: cells; type: functional, cell-based; details: Homo sapiens;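 note: growth inhibition of SW626 cells, measured with a cell viability assay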
Description: SANGER: Inhibition of human SW626 cell growth in a cell viability assay.

T84 = test: cells; type: functional, cell-based; details: Homo sapiens;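 note: growth inhibition measured with a cell viability readout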
Description: SANGER: Inhibition of human T84 cell growth in a cell viability assay.

TALL-1 = test: cells; type: functional, cell-based; details: Homo sapiens;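 note: growth inhibition of cultured human TALL-1 cells, read out by a cell viability assay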
Description: SANGER: Inhibition of human TALL-1 cell growth in a cell viability assay.

CWR22R = test: cells; type: functional, cell-based; details: Homo sapiens, 22Rv1;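 note: growth inhibition of 22Rv1 cells, read out with a cell viability assay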
Description: SANGER: Inhibition of human 22RV1 cell growth in a cell viability assay.

5637 = test: cells; type: functional, cell-based; details: Homo sapiens
Description: SANGER: Inhibition of human 5637 cell growth in a cell viability assay.

769-P = test: cells; type: functional, cell-based; details: Homo sapiens
Description: SANGER: Inhibition of human 769-P cell growth in a cell viability assay.

8305C = test: cells; type: functional, cell-based; details: Homo sapiens
Description: SANGER: Inhibition of human 8305C cell growth in a cell viability assay.

8505C = test: cells; type: functional, cell-based; details: Homo sapiens
Description: SANGER: Inhibition of human 8505C cell growth in a cell viability assay.

A-375 = test: cells; type: functional, cell-based; details: Homo sapiens;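 note: growth inhibition of A375 cells, read out with a cell viability assay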
Description: SANGER: Inhibition of human A375 cell growth in a cell viability assay.

BC-3 = test: cells; type: functional, cell-based; details: Homo sapiens;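 note: cell viability assay measuring growth inhibition of human BC-3 cells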
Description: SANGER: Inhibition of human BC-3 cell growth in a cell viability assay.

BPH-1 = test: cells; type: functional, cell-based; details: Homo sapiens;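 note: cell viability assay measuring growth inhibition of human BPH-1 cells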
Description: SANGER: Inhibition of human BPH-1 cell growth in a cell viability assay.

BXPC-3 = test: cells; type: functional, cell-based; details: Homo sapiens;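 note: growth inhibition of human BxPC-3 cells, read out by a cell viability assay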
Description: SANGER: Inhibition of human BxPC-3 cell growth in a cell viability assay.

C32 = test: cells; type: functional, cell-based; details: Homo sapiens;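 note: cell viability assay, with IC50 reflecting inhibition of C32 cell growth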
Description: SANGER: Inhibition of human C32 cell growth in a cell viability assay.

CAKI-1 = test: cells; type: functional, cell-based; details: Homo sapiens;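 note: growth inhibition of CAKI-1 cells, measured by a cell viability assay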
Description: SANGER: Inhibition of human CAKI-1 cell growth in a cell viability assay.

CAL-12T = test: cells; type: functional, cell-based, Homo sapiens; details: Homo sapiens, CAL-12T;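 note: growth inhibition of human CAL-12T cells, read out with a cell viability assay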
Description: SANGER: Inhibition of human CAL-12T cell growth in a cell viability assay.

TGW = test: cells; type: functional, cell-based; details: Homo sapiens;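 note: growth inhibition of human TGW cells, read out with a cell viability assay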
Description: SANGER: Inhibition of human TGW cell growth in a cell viability assay.

THP-1 = test: cells; type: functional, cell-based; details: Homo sapiens;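 note: growth inhibition of THP-1 cells, read out via a cell viability assay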
Description: SANGER: Inhibition of human THP-1 cell growth in a cell viability assay.

UMC-11 = test: cells; type: functional, cell-based; details: Homo sapiens
Description: SANGER: Inhibition of human UMC-11 cell growth in a cell viability assay.

CMK = test: cells; type: functional, cell-based; details: Homo sapiens
Description: SANGER: Inhibition of human CMK cell growth in a cell viability assay.

CC(C)=CC[C@@H](O)C1=CC(=O)c2c(O)ccc(O)c2C1=O [SHIKONIN]
IC50 (COR-L23): 301 nM | IC50 (CP50-MEL-B): 1430 nM | IC50 (Ca-Ski): 650 nM | IC50 (CaR-1): 1310 nM | IC50 (D-247MG): 1660 nM | IC50 (DOK): 5190 nM | IC50 (EB-3): 1140 nM | IC50 (EB2): 311 nM | IC50 (FaDu): 1770 nM | IC50 (GCT): 1150 nM | IC50 (IST-SL2): 200 nM | IC50 (K052): 1100 nM | IC50 (Kasumi 1): 124 nM | IC50 (KYSE-520 cell line): 598 nM | IC50 (KYSE-70 cell line): 2420 nM | IC50 (LC4-1): 360 nM | IC50 (LK-2): 8570 nM | IC50 (MCF7): 435 nM | IC50 (MDA-MB-157): 637 nM | IC50 (MDA-MB-175-VII): 2050 nM | IC50 (MDA-MB-361): 1730 nM | IC50 (MEL-JUSO): 540 nM | IC50 (MIA PaCa-2): 276 nM | IC50 (NCI-H1793): > 16000 nM | IC50 (NCI-H1882): 576 nM | IC50 (NCI-H2030): 563 nM | IC50 (NCI-H2052): 61.1 nM | IC50 (NCI-H2122): > 16000 nM | IC50 (NCI-H748): 1780 nM | IC50 (NCI-N87): 2940 nM | IC50 (NUGC-3): 765 nM | IC50 (OAW-42): 578 nM | IC50 (OVCAR-5): 1120 nM | IC50 (PA-1): 201 nM | IC50 (PANC-03-27): 167 nM | IC50 (RD): 449 nM | IC50 (RERF-LC-MS): 4190 nM | IC50 (RPMI-2650): 375 nM | IC50 (RPMI-6666): 587 nM | IC50 (SF-295): 664 nM | IC50 (SK-MEL-24): 1130 nM | IC50 (SK-MEL-28): > 16000 nM | IC50 (SKG-IIIa): 4390 nM | IC50 (ST486): < 62.5 nM | IC50 (SW1710): < 62.5 nM | IC50 (SW-620): 359 nM | IC50 (SW626): 635 nM | IC50 (T84): 14500 nM | IC50 (TALL-1): > 16000 nM | IC50 (CWR22R): 4610 nM | IC50 5637: > 16000 nM | IC50 (769-P): 689 nM | IC50 (8305C): 305 nM | IC50 (8505C): 3100 nM | IC50 (A-375): 311 nM | IC50 (BC-3): 926 nM | IC50 (BPH-1): 1260 nM | IC50 (BXPC-3): 334 nM | IC50 (C32): 2680 nM | IC50 (CAKI-1): 894 nM | IC50 (CAL-12T): 1900 nM | IC50 (TGW): 522 nM | IC50 (THP-1): 891 nM | IC50 (UMC-11): > 16000 nM | IC50 (CMK): 352 nM

O=c1[nH]c2ccccc2n1C1CCN(Cc2ccc(-c3nc4cc5[nH]cnc5cc4nc3-c3ccccc3)cc2)CC1
IC50 (COR-L23): > 2560 nM | IC50 (CP50-MEL-B): > 2560 nM | IC50 (Ca-Ski): > 2560 nM | IC50 (CaR-1): > 2560 nM | IC50 (D-247MG): > 2560 nM | IC50 (DOK): > 2560 nM | IC50 (EB-3): > 2560 nM | IC50 (EB2): > 2560 nM | IC50 (FaDu): > 2560 nM | IC50 (GCT): > 2560 nM | IC50 (IST-SL2): > 2560 nM | IC50 (K052): > 2560 nM | IC50 (Kasumi 1): 1410 nM | IC50 (KYSE-520 cell line): > 2560 nM | IC50 (KYSE-70 cell line): > 2560 nM | IC50 (LC4-1): > 2560 nM | IC50 (LK-2): > 2560 nM | IC50 (MCF7): > 2560 nM | IC50 (MDA-MB-157): > 2560 nM | IC50 (MDA-MB-175-VII): > 2560 nM | IC50 (MDA-MB-361): 490 nM | IC50 (MEL-JUSO): > 2560 nM | IC50 (MIA PaCa-2): > 2560 nM | IC50 (NCI-H1793): > 2560 nM | IC50 (NCI-H1882): > 2560 nM | IC50 (NCI-H2030): 1940 nM | IC50 (NCI-H2052): > 2560 nM | IC50 (NCI-H2122): > 2560 nM | IC50 (NCI-H748): > 2560 nM | IC50 (NCI-N87): > 2560 nM | IC50 (NUGC-3): > 2560 nM | IC50 (OAW-42): > 2560 nM | IC50 (OVCAR-5): > 2560 nM | IC50 (PA-1): > 2560 nM | IC50 (PANC-03-27): > 2560 nM | IC50 (RD): > 2560 nM | IC50 (RERF-LC-MS): > 2560 nM | IC50 (RPMI-2650): > 2560 nM | IC50 (RPMI-6666): > 2560 nM | IC50 (SF-295): > 2560 nM | IC50 (SK-MEL-24): > 2560 nM | IC50 (SK-MEL-28): > 2560 nM | IC50 (SKG-IIIa): > 2560 nM | IC50 (ST486): > 2560 nM | IC50 (SW1710): 1390 nM | IC50 (SW-620): > 2560 nM | IC50 (SW626): > 2560 nM | IC50 (T84): > 2560 nM | IC50 (TALL-1): > 2560 nM | IC50 (CWR22R): > 2560 nM | IC50 5637: > 2560 nM | IC50 (769-P): > 2560 nM | IC50 (8305C): > 2560 nM | IC50 (8505C): > 2560 nM | IC50 (A-375): > 2560 nM | IC50 (BC-3): > 2560 nM | IC50 (BPH-1): > 2560 nM | IC50 (BXPC-3): 2220 nM | IC50 (C32): > 2560 nM | IC50 (CAKI-1): > 2560 nM | IC50 (CAL-12T): > 2560 nM | IC50 (TGW): > 2560 nM | IC50 (THP-1): > 2560 nM | IC50 (UMC-11): > 2560 nM | IC50 (CMK): > 2560 nM
